Test results published in publication PMC9606955, “In Vitro Activity of Essential Oils Distilled from Colombian Plants against Candida auris and Other Candida Species with Different Antifungal Susceptibility Profiles” (Molecules, 2022).
≈ marks a conversion by molar mass, not a printed value.

Key:
[1] = test system: C. metapsilosis MUM 15.12; experiment: MIC, CLSI M27 broth microdilution; assay type: cell-based, Candida metapsilosis; settings: C. metapsilosis MUM 15.12, antifungal drugs; for MIC: Lodderomyces metapsilosis, MUM15.12, geometric mean, read-out: MIC GM
In short: (§1)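 Endpoint: visible growth inhibition versus control, read by eye after 24 h incubation at 35 °C. Broth microdilution in RPMI 1640-MOPS, 2.5 × 10^3 CFU/mL inoculum, compounds tested from 0.5 up to 256 µg/mL final. Reported as geometric mean and range.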

[2] = test system: C. lusitaniae MUM 17.08; experiment: MIC, CLSI M27 broth microdilution; assay type: cell-based, Candida lusitaniae; settings: C. lusitaniae MUM 17.08, antifungal drugs; for MIC: Clavispora lusitaniae, MUM17.08, geometric mean, read-out: MIC GM
In short: as §1

[3] = test system: C. parapsilosis ATCC 22019; experiment: MIC, CLSI M27 broth microdilution; assay type: cell-based, Candida parapsilosis; settings: antifungal drugs; for MIC: Lodderomyces parapsilosis, ATCC22019, geometric mean
In short: as §1

[4] = test system: C. parapsilosis Synlab 406; experiment: MIC, CLSI M27 broth microdilution; assay type: cell-based, Candida parapsilosis; settings: C. parapsilosis Synlab 406; for MIC Range / MIC: antifungal drugs; for MIC: Lodderomyces parapsilosis, SYNLAB406, geometric mean, read-out: MIC GM
In short: as §1

[5] = test system: C. auris; experiment: MIC, CLSI M27 broth microdilution, several C. auris strains together; assay type: cell-based, Candida auris; settings: C. auris Ca 41, Ca 45 and Ca 46 together
Text: The fungal strains used in this study were C. albicans ATCC 10231, C. albicans ATCC 64550, C. parapsilosis ATCC 22019, C. tropicalis ATCC 750, C. tropicalis ATCC 200956 (resistant to azoles and AMB), C. glabrata LMDM 34 (resistant to echinocandins), C. metapsilosis MUM 15.12, C. orthopsilosis MUM 17.13, C. lusitaniae MUM 17.08, C. krusei ATCC 6258 (Issatchenkia orientalis ATCC 6258), and C. auris CDC B11903. Additionally, nine clinical isolates were included: C. parapsilosis Synlab 406 (FLC-resistant) and eight C. auris isolates identified by MALDI-TOF MS (Bruker Daltonics, Bremen, Germany) according to Zhao et al.. These yeasts were cultured on Sabouraud Dextrose Agar (SDA; Sigma-Aldrich, St. Louis, MO, USA) for 24 h at 35 °C.
Antifungal susceptibility testing was performed according to Clinical and Laboratory Standards Institute M27, 4th Edition (CLSI standard M27, 4th Edition). […] MICs were visually determined at the lowest concentration that produced visual inhibition compared to the growth control. […] The results were expressed as geometric means (GM) and ranges. As an antifungal susceptibility testing control, the activity of ITC and AMB against the reference strains C. krusei ATCC 6258 and C. parapsilosis ATCC 22019 was evaluated in all experiments following the CLSI standard M27, 4th Edition. […]

MIC Range [5] [µg/mL]	SMILES	MIC Range [1] [µg/mL]	MIC [1] [µg/mL]	MIC Range [2] [µg/mL]	MIC [2] [µg/mL]	MIC [3] [µg/mL]	MIC Range [3] [µg/mL]	MIC Range [4] [µg/mL]	susceptibility category ([4]; resistance confirmed)	MIC [4] [µg/mL]
	OC(Cn1cncn1)(Cn1cncn1)c1ccc(F)cc1F [FLC, fluconazole]	1 to 2	1.4 (≈ 4.57 µM)	0.5 (≈ 1.63 µM)	0.5 (≈ 1.63 µM)	0.7 (≈ 2.29 µM)	0.5 to 1	8 to 16	resistance	11.3 (≈ 36.9 µM)
1 to 2	C[C@@H]1[C@H](O)[C@@H](C)/C=C/C=C/C=C/C=C/C=C/C=C/C=C/[C@H](O[C@@H]2O[C@H](C)[C@@H](O)[C@H](N)[C@@H]2O)C[C@@H]2O[C@](O)(C[C@@H](O)C[C@@H](O)[C@H](O)CC[C@@H](O)C[C@@H](O)CC(=O)O[C@H]1C)C[C@H](O)[C@H]2C(=O)O [AMB, amphotericin B]	<0.03	< 0.03	0.03 (≈ 0.0325 µM)	0.03 (≈ 0.0325 µM)	0.06 (≈ 0.0649 µM)	0.06 (≈ 0.0649 µM)	0.06 to 0.25		0.15 (≈ 0.162 µM)
